Assay results taken from patent publication US7087626B2, “Pyrrole derivatives as pharmaceutical agents” (Eli Lilly and Company, priority 2001, dated 2006).

Legend:
[1] = target: T1, TGF-β Type I (RIT204D) receptor (Homo sapiens, UniProt P36897, T204D); experiment: TGF-β Receptor I (RIT204D) in vitro kinase reaction; type: biochemical; details: 6×-HIS cytoplasmic kinase domain, 4 uM ATP, 30° C., 1 hr
T1 construct: The 6×-HIS tagged cytoplasmic kinase domain of each receptor was expressed and purified from Sf9 insect cell lysates; 6xHis; made in house; host or cells: Sf9 insect cells
T1 sequence (P36897 148-503 T204D limits assumed): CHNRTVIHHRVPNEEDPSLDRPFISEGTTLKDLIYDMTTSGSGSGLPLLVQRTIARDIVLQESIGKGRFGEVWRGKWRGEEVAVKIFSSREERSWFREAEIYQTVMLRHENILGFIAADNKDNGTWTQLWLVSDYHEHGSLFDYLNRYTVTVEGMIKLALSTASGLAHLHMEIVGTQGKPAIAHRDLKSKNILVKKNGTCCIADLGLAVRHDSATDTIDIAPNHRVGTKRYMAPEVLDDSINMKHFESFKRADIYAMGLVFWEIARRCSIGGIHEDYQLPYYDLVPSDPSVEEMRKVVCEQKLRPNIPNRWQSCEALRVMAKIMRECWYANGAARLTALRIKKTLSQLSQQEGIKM
Procedure: (§1) TGF-β Receptor I and II Purification and in vitro Kinase Reactions
(§2) For TGF-β Type I (RIT204D) and Type II (RII WT) Receptors: The 6×-HIS tagged cytoplasmic kinase domain of each receptor was expressed and purified from Sf9 insect cell lysates as briefly described below:
(§3) Cell pellets after 48-72 hrs of infection were lysed in lysis buffer (LB: 50 mM Tris pH 7.5, 150 mM NaCl, 50 mM NaF, 0.5% NP40 with freshly added 20 mM, β-mercaptoethanol, 10 mM imidazole, 1 mM PMSF, 1×EDTA-free Complete Protease Inhibitor (Boehringer Mannheim).
(§4) Reactions: 170-200 nM enzyme in 1×KB, compound dilution series in 1×KB/16% DMSO (20 uM to 1 nM final concentration with 4% DMSO final concentration), reactions started by adding ATP mix (4 uM ATP/1 uCi ^33P-[…]-ATP final concentrations) in 1×KB.
(§5) Reactions were incubated at 30° C. for 1 hr RIT204D or 40 min for RII WT. Reactions were stopped and quantitated using standard TCA/BSA precipitation onto Millipore FB glass fiber filter plates and by liquid scintillation counting on a MicroBeta JET.

[2] = target: T2, TGF-β Type II (RII WT) receptor (Homo sapiens, UniProt P37173); experiment: TGF-β Receptor II (RII WT) in vitro kinase reaction; type: biochemical; details: 6×-HIS cytoplasmic kinase domain, 4 uM ATP, 30° C., 40 min
T2 construct: The 6×-HIS tagged cytoplasmic kinase domain of each receptor was expressed and purified from Sf9 insect cell lysates; 6xHis; made in house; host or cells: Sf9 insect cells
T2 sequence (P37173 244-544 limits assumed): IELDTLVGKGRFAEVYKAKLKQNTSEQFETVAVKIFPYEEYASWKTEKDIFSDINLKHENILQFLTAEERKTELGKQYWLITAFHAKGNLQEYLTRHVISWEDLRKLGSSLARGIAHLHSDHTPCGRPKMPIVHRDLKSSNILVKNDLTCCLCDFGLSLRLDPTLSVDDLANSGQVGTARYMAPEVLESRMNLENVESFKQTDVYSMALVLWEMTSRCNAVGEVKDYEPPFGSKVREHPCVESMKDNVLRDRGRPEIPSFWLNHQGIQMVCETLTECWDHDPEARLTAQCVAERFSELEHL
Procedure: as §1, §2, §3
Cell lysates were clarified: by centrifugation and […] filtered prior to purification by Ni/NTA affinity chromatography (Qiagen).
Equilibrate with 10 CV of LB, load sample, wash with 10 CV RIPA buffer (50 mM Tris pH 7.5, 150 mM NaCl, 1% NP40, 1 mM EDTA, 0.25% sodium deoxycholate, added fresh 20 mM β-mercaptoethanol, 1 mM PMSF), wash with 10 CV LB, wash with 10 CV 1×KB (50 mM Tris pH 7.5, 150 mM NaCl, 4 mM MgCl2, 1 mM NaF, 2 mM β-mercaptoethanol), elute with a linear gradient of 1×KB containing 200 mM Imidazole.
Both enzymes were approximately 90% pure and had autophosphorylation activity.
as §4, §5

SMILES	IC50 [1]	IC50 [2]
OC1CCCc2c(-c3ccnc4ccccc34)c(-c3ccccn3)nn21 (stereo not drawn) [2-Pyridin-2-yl-3-quinolin-4-yl-pyrazolo[1,5-a]piperidin-7-ol]		< 20 µM
O=C1OCCN1c1ccc2c(-c3c(-c4ccccn4)nn4c3CCC4)ccnc2c1 [3-[4-(2-Pyridin-2-yl-5,6-dihydro-4H-pyrrolo[1,2-b]pyrazol-3-yl)-quinolin-7-yl]-oxazolidin-2-one]		< 20 µM
CN(C)CCCN(C)C(=O)c1ccc2c(-c3c(-c4ccccn4)nn4c3CCC4)ccnc2c1 [4-(2-Pyridin-2-yl-5,6-dihydro-4H-pyrrolo[1,2-H]pyrazol-3-yl)-quinoline-7-carboxylic acid(3-dimethylamino-propyl)-methyl-amide]	< 20 µM	
O=C(NC1CC1)c1ccc2c(-c3c(-c4ccccn4)nn4c3CCC4)ccnc2c1 [4-(2-Pyridin-2-yl-5,6-dihydro-4H-pyrrolo[1,2-b]pyrazol-3-yl)-quinoline-7-carboxylic acid cyclopropylamide]		< 20 µM
CCCNC(=O)c1ccc2c(-c3c(-c4ccccn4)nn4c3CCC4)ccnc2c1 [4-(2-Pyridin-2-yl-5,6-dihydro-4H-pyrrolo[1,2-b]pyrazol-3-yl)-quinoline-7-carboxylic acid propylamide]	< 20 µM	
O=C(Nc1ccccn1)c1ccc2c(-c3c(-c4ccccn4)nn4c3CCC4)ccnc2c1 [4-(2-Pyridin-2-yl-5,6-dihydro-4H-pyrrolo[1,2-b]pyrazol-3-yl)-quinoline-7-carboxylic acid pyridin-2-ylamide]		< 20 µM
CCC(C)CNC(=O)c1ccc2c(-c3c(-c4ccccn4)nn4c3CCC4)ccnc2c1 (stereo not drawn) [4-(2-Pyridin-2-yl-5,6-dihydro-4H-pyrrolo[1,2-b]pyrazol-3-yl)-quinoline-7-carboxylic acid(2-methyl-butyl)-amide]		< 20 µM
c1csc(-c2nn3c(c2-c2ccnc4ccccc24)CCC3)c1 [4-(2-Thiophen-2-yl-5,6-dihydro-4H-pyrrolo[1,2-b]pyrazol-3-yl)quinoline]	< 20 µM	
Clc1cccc(-c2nn3c(c2-c2ccnc4ccccc24)CCCC3)c1 [4-[2-(3-Chloro-phemyl)-4,5,6,7-tetrahydro-pyrazolo[1,5-alpyridin-3-y]-quinoline]	< 20 µM	
FC(F)(F)Oc1cccc(-c2nn3c(c2-c2ccnc4ccccc24)CCC3)c1 [4-[2-(3-Trifluoromethoxy-phenyl)-5,6-dihydro-4H-pyrrolo[1,2-b]pyrazol-3-yl]-quinoline]	< 20 µM	
FC(F)(F)c1cccc(-c2nn3c(c2-c2ccnc4ccccc24)CCC3)c1 [4-[2-(3-Trifluoromethylphenyl)-5,6-dihydro-4H-pyrrolo[1,2-b]pyrazol-3-yl]-quinoline]		< 20 µM
COc1cccc(C2Cc3c(-c4ccnc5ccccc45)c(-c4ccccn4)nn3C2)c1 (stereo not drawn) [4-[5-(3-Methoxy-phenyl)-2-pyridin-2-yl-5,6-dihydro-4H-pyrrolo[1,2-b]pyrazol-3-yl]-quinoline]		< 20 µM
CS(=O)(=O)c1ccc2c(-c3c(-c4ccccn4)nn4c3CCC4)ccnc2c1 [7-Methanesulfonyl-4-(2-pyridin-2-yl-5,6-dihydro-4H-pyrrolo[1,2-b]pyrazol-3-yl)-quinoline]	< 20 µM	
CCN(C)CCCOc1ccc2c(-c3c(-c4ccccn4)nn4c3CCC4)ccnc2c1 [Ethyl-methyl-{3-[4-(2-pyridin-2-yl-5,6-dihydro-4H-pyrrolo[1,2-b]pyrazol-3-yl)-quinolin-7-yloxy]-propyl}-amine]		< 20 µM
CN(C)CCNC(=O)COc1ccc2c(-c3c(-c4ccccn4)nn4c3CCC4)ccnc2c1 [N-(2-dimethylamino-ethyl)-2-[4-(2-pyridin-2-yl-5,6-dihydro-4H-pyrrolo[1,2-b]pyrazol-3-yl)-quinolin-7-yloxy]-acetamide]	< 20 µM	< 20 µM
CC(=O)NCCCOc1ccc2c(-c3c(-c4ccccn4)nn4c3CCC4)ccnc2c1 [N-{3-[4-(2-Pyridin-2-yl-5,6-dihydro-4H-pyrrolo[1,2-b]pyrazol-3-yl)-quinolin-7-yloxy]-propyl}-acetamide]	< 20 µM	
Cc1cccc(-c2nn3c(c2-c2ccnc4cc(Br)ccc24)CCC3CO)n1 (stereo not drawn) [[3-(7-Bromo-quinolin-4-yl)-2-(6-methyl-pyridin-2-yl)-5,6-dihydro-4H-pyrrolo[1,2-b]pyrazol-6-yl]3-methanol]		< 20 µM

The remaining lines, values ahead:

IC50 [1]	IC50 [2]	SMILES
< 20 µM		Cc1cccc(-c2nn3c(c2-c2cccnc2)CCC3)n1 [2-(6-methyl-pyridin-2-yl)-3-pyridin-3-yl-5,6-dihydro-4H-pyrrolo[1,2-b]pyrazole]
< 20 µM		Cc1cccc(-c2nn3c(c2-c2ccc(F)cc2)CCC3)n1 [3-(4-Fluorophenyl)-2-(6-methylpyridin-2-yl)-5,6-dihydro-4H-pyrrolo[1,2-b]pyrazole]
< 20 µM		COc1ccc(-c2c(-c3cccc(C)n3)nn3c2CCC3)cc1 [3-(4-Methoxyphenyl)-2-(6-methylpyridin-2-yl)-5,6-dihydro-4H-pyrrolo[1,2-b]pyrazole]
< 20 µM		COC(=O)/C=C/c1ccc2c(-c3c(-c4cccc(C)n4)nn4c3CCC4)ccnc2c1 [3-{4-[2-(6-Methyl-pyridin-2-yl)-5,6-dihydro-4H-pyrrolo[1,2-b]pyrazol-3-yl]-quinolin-7-yl}-acrylic acid methyl ester]
	< 20 µM	Cc1cccc(-c2nn3c(c2-c2ccnc4cc(C=CC(=O)O)ccc24)CCC3)n1 [3-{4-[2-(6-Methyl-pyridin-2-yl)-5,6-dihydro-4H-pyrrolo[1,2-b]pyrazol-3-yl]-quinolin-7-yl}-acrylic acid]
	< 20 µM	Nc1ccc2c(-c3c(-c4ccccn4)nn4c3CCC4)ccnc2c1 [4-(2-Pyridin-2-yl-5,6-dihydro-4H-pyrrolo[1,2-b]pyrazol-3-yl)-quinolin-7-ylamine]
< 20 µM		c1ccc(Cc2cccc(-c3nn4c(c3-c3ccnc5ccccc35)CCC4)n2)cc1 [4-[2-(6-Benzyl-pyridin-2-yl)-5,6-dihydro-4H-pyrrolo[1,2-b]pyrazol-3-yl]-quinoline]
	< 20 µM	Cc1cccc(-c2nn3c(c2-c2ccnc4ccc(-c5ccccc5)cc24)CCC3)n1 [4-[2-(6-Methyl-pyridin-2-yl)-5,6-dihydro-4H-pyrrolo[1,2-b]pyrazol-3-yl]-6-phenyl-quinoline]
	< 20 µM	ClCCCOc1ccc2c(-c3c(-c4ccccn4)nn4c3CCC4)ccnc2c1 [7-(3-Chloro-propoxy)-4-(2-pyridin-2-yl-5,6-dihydro-4H-pyrrolo[1,2-b]pyrazol-3-yl)-quinoline]
	< 20 µM	CC(C)c1cc(-c2c(-c3ccccn3)nn3c2CCC3)c2ccc(Br)cc2n1 [7-Bromo-2-isopropyl-4-(2-pyridin-2-yl-5,6-dihydro-4H-pyrrolo[1,2-b]pyrazol-3-yl)-quinoline]
	< 20 µM	CN(C)CCOc1ccc2c(-c3c(-c4ccccn4)nn4c3CCC4)ccnc2c1 [Dimethyl-{2-[4-(2-pyridin-2-yl-5,6-dihydro-4H-pyrrolo[1,2-b]pyrazol-3-yl)-quinolin-7-yloxy]-ethyl}-amine]
< 20 µM	< 20 µM	CN(C)CCCOc1ccc2c(-c3c(-c4ccccn4)nn4c3CCC4)ccnc2c1 [Dimethyl-{3-[4-(2-pyridin-2-yl-5,6-dihydro-4H-pyrrolo[1,2-b]pyrazol-3-yl)-quinolin-7-yloxy]-propyl}-amine]
< 20 µM		CN(C)CCCCOc1cc(-c2c(-c3ccccn3)nn3c2CCC3)ccn1 [Dimethyl-{4-[4-(2-pyridin-2-yl-5,6-dihydro-4H-pyrrolo[1,2-b]pyrazol-3-yl)-pyridin-2-yloxy]-butyl}-amine]
< 20 µM		CN(C)CCCNc1cc(-c2c(-c3ccccn3)nn3c2CCC3)ccn1 [N,N-Dimethyl-N′-[4-(2-pyridin-2-yl-5,6-dihydro-4H-pyrrolo[1,2-b]pyrazol-3-yl)-pyridin-2-yl]-propane-1,3-diamine]
